Earlier results in article PMC2936243 (Journal of neurochemistry, 2010).
Marks after values point to notes of the source that are not given here.

Tests used:
Conditions in all cases: cited from earlier work
[1] = test system: α3* and α6* containing nAChR subtypes
[2] = test system: nAChR subtypes that contain the α1 and α9 subunits
[3] = test system: GABAARs that contain the β3 subunit
[4] = test system: unknown site in brain tissue from α7 knockout mice

Row | Substance | binding selectivity [1] | binding to α1 and α9 containing nAChRs [2] | binding to GABAARs [3] | residual binding in α7 knockout brain tissue [4]
1 | monoiodinated α-conotoxin MII [[^125I]-α-CTx MII] | selectively binds to α3* and α6* containing nAChR subtypes |  |  | 
2 | α-bungarotoxin [α-BgTx] |  | also binds to non-α7 nAChR subtypes including those that contain the α1 and α9 subunits | binds to a subset of GABAARs that contain the β3 subunit | significant residual α-BgTx binding to an unknown site
